Reference: US20010014454A1, “NOVEL METAL COMPLEXES” (priority 2000, published 2001)
One block for each molecule: values may come before it.

Assays:
G-CSF receptor [1] = target: T1, G-CSF receptor (Mus musculus, UniProt P40223); assay: Luciferase reporter gene assay in G-CSF-responsive NFS60 cells; type: cell-based, murine; conditions: absence of zinc
T1 construct: they express endogenous G-CSF receptors; endogenous in cells; host or cells: NFS60 murine myeloid cells with a G-CSF-responsive luciferase reporter
T1 sequence (P40223 26-837): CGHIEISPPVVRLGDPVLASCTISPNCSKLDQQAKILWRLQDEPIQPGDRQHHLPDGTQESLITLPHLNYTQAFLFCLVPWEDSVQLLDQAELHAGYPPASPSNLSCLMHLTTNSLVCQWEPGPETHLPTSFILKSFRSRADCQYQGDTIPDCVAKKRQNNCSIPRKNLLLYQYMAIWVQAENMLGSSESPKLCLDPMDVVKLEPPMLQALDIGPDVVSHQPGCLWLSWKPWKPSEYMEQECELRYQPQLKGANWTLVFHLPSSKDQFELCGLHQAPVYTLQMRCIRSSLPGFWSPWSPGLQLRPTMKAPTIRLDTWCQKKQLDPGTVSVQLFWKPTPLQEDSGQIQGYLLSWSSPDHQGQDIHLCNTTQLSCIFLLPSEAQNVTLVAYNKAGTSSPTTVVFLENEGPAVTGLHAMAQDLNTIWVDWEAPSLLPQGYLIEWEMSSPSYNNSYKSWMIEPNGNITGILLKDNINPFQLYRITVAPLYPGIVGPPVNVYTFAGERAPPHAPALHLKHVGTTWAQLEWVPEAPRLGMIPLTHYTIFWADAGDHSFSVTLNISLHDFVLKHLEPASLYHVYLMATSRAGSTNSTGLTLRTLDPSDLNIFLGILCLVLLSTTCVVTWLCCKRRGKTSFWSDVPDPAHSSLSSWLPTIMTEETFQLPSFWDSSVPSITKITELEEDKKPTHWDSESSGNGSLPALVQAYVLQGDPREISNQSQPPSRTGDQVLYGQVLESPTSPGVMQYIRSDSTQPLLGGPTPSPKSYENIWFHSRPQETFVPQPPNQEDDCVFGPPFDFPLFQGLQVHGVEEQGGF
Procedure: Activity of compound 1a is below the threshold of 150% over background. The study was performed as a Luciferase assay configured on the G-CSF-responsive NFS60 cell line as described in Tian et al., Science 281, 257-259 (1998). The experiments shown in FIGS. 2-8 used the same NFS60 cell line.
Compounds of the present invention are tested for potency as agonist of a dimeric cell-surface receptor in a Luciferase reporter gene assay such as described in Tian et al., Science 281. 257-259 (1998). For example, for G-CSF NFS60 cells (Holmes, et al., Proc. Natl. Acad. Sci. USA 82: 6687-6691 (1985)) are selected because they express endogenous G-CSF receptors closely matching the pattern of STAT (signal transducers and activators of transcription) activation observed in primary murine and human bone marrow cells.

G-CSF receptor [2] = target: T1, G-CSF receptor; assay: Luciferase assay and EDTA (NFS60 cells, with or without metal chlorides); type: cell-based, murine; conditions: for agonist activity in the presence of EDTA: in the presence of EDTA (FIGS. 3 and 4)
Procedure: FIG. 3 is an analysis of the effect of ethylenediaminetetraacetic acid (as used herein—EDTA) on the activity of Compound 1a (from Example 1) in NFS60 cells. Shown are luciferase response curves of Compound 1a at the indicated concentrations and in the presence of various concentrations of EDTA. […] The media in this assay contained a small amount (1-5 uM) of zinc(II).
FIGS. 7 and 8 show an analysis of the effect of metal chlorides on the EDTA depleted activity of Compound 1a on NFS60 cells. Shown are luciferase response curves as effected by the indicated metal chlorides. […] None of the other metals tested could overcome the inhibitory effect of EDTA.
In order to determine the requisiteness of zinc chelation of small organic molecules to agonist activity at dimeric cell-surface receptors, the above luciferase assay was performed on the G-CSF receptor in the presence of EDTA. EDTA is a strong metal chelator and had as it only effect, the removal of zinc from the ligand-receptor interaction.

[3] = system: peripheral blood neutrophil and monocyte count; assay: In vivo evaluation of peripheral blood neutrophil and monocyte count in the mouse
Procedure: Compounds of this invention are also tested for activity in the following assays: CFU-G assay (an example of which is described in King A G, Talmadge J., Badger A M, Pelus L M. Regulation of colony stimulating activity production from bone marrow stromal cells by the hematoregulatory peptide, HP-5. Exp. Hematol. 20:223-228, 1992) and in vivo evaluation of peripheral blood neutrophil and monocyte count in the mouse (an example of which is described in Pelus, L. M.; King, A. G.; Broxmeyer, H. E.; DeMarsh, P. L.; Petteway, S. R.; Bhatnagar, P. K., In vivo modulation of hematopoiesis by a novel hematoregulatory peptide Exp-Hematol. 1994 22(3): 239-47). In order to confirm the requirement for zinc(II) chelation, the above CFU-G assay was also conducted in the presence of EDTA.

G-CSF/Fc fusion protein = assay: Isothermal titration microcalorimetry; type: binding; conditions: in the presence of zinc
Procedure: Zinc-mediated affinity of compounds from this invention for dimeric cell-surface receptors (specifically the G-CSF receptor) was measured by isothermal titration microcalorimetry experiments. Titration microcalorimetry detects binding as heat originating from the intrinsic bond forming enthalpy change. In this assay, the compounds were titrated first against zinc(II) alone. In a separate experiment, the compounds were then assayed in the presence of zinc and a dimeric cell-surface receptor/Fc fusion protein (a G-CSF/Fc fusion protein), which contained the extracellular domain of the receptor presented in a dimeric form due to the Fc component.

luciferase activity over background (G-CSF receptor [1]): < 150%
effect of EDTA on luciferase activity (G-CSF receptor [2]; EDTA at 1.2 millimolar, media contained 1-5 uM zinc(II)): antagonized
agonist activity in the presence of EDTA (G-CSF receptor [2]): abrogated
affinity for the fusion protein construct (G-CSF/Fc fusion protein): submicromolar
Molecule: c1ccc(C23NC(=Nc4nc5ccccc5[nH]4)NC2(c2ccccn2)NC(=Nc2nc4ccccc4[nH]2)N3)nc1 (stereo not shown) [Compound 1a, 2,5-Bis[2-benzimidazolylimino]-3a,6a-bis(2-pyridyl)-1,2,3,3a,4,5,6,6a-octahydroimidazo[4,5-d]imidazole]
effect of metal chlorides on the EDTA depleted luciferase activity (G-CSF receptor [2]; Compound 1a, 50 micromolar EDTA, plus metal chlorides): Only zinc (II) at concentrations 0.5-10 micromolar can overcome the inhibition
peripheral blood neutrophil and monocyte count [3]: elevation

affinity for the fusion protein construct (G-CSF/Fc fusion protein): submicromolar
Molecule: Cc1ccc2nc(N=C3NC4(c5ccccn5)NC(=Nc5nc6ccccc6[nH]5)NC4(c4ccccn4)N3)[nH]c2c1.O=C(O)C(F)(F)F.O=C(O)C(F)(F)F (stereo not shown) [Compound 3a, 5-(2-benzimidazolylimino)-2-[(5-methyl-2-benzimidazolyl)imino]-3a,6a-bis(2-pyridyl)-1,2,3,3a,4,5,6,6a-octahydroimidazo[4,5-d]imidazole bis(trifluoroacetate) salt]
peripheral blood neutrophil and monocyte count [3]: elevation

effect of EDTA on luciferase activity (G-CSF receptor [2]; EDTA at both 1.2 and 5 millimolar): little effect
agonist activity in the presence of EDTA (G-CSF receptor [2]): not mediated by metal ions
B1: recombinant G-CSF: the natural ligand (i.e. G-CSF or recombinant G-CSF) of the G-CSF receptor (protein, UniProt P09919 31-207, looked up)
Granulocyte …: TPLGPASSLPQSFLLKCLEQVRKIQGDGAALQEKLVSECATYKLCHPEELVLLGHSLGIPWAPLSSCPSQALQLAGCLSQLHSGLFLYQGLLQALEGISPELGPTLDTLQLDVADFATTIWQQMEELGMAPALQPTQGAMPAFASAFQRRAGGVLVASHLQSFLEVSYRVLRHLAQP
